This is an account of results in patent US20060063209A1, “Engineered antibody fragment that irreversibly binds an antigen” (THE REGENTS OF THE UNIVERSITY OF CALIFORNIA, priority 2004, published 2006).

The nature of series [1]: Whole-body clearance of indium-111 labeled electrophilic benzyl-EDTA derivatives. It counts as in vivo. Particulars: indium-111 labeled chelate, BALB/c mice; for apparent half-life, whole-body clearance: after tail-vein injection. The protocol:
FIG. 4 Whole-body clearance of indium-^111I labeled electrophilic derivatives of benzyl-EDTA from BALB/c mice after tail-vein injection. Here the objective was to find an electrophilic chelate that clears from the animal quickly when not captured by an engineered CHA255.
As reactive ligands, a small set of chelates bearing electrophilic para substituents (FIG. 3) that could react with cysteine were prepared. To be most useful, the electrophilic ligands should be stable in biological media so that they not react prematurely with common biological nucleophiles such as the cysteine on glutathione or in albumin (Geigy Scientific Tables Vol 3, C. Lentner, ed., Ciba-Geigy Ltd., Basel, Switz (1984)). The whole-body clearance of the radiolabeled chelates from mice was studied (FIG. 4 and Chmura, A. J., et al., J. Controlled Release 78:249-258 (2002)) to identify the electrophilic chelates that are unreactive in plasma in vitro, and which also quantitatively clear from live animals.

The test system of the next series is Fab S95C. Put plainly: Covalent attachment of 111In-chelates to engineered Fab S95C (SDS-PAGE). It counts as binding. To be noted: physiological pH and temperature, raw culture medium with 10% fetal calf serum. The protocol:
FIG. 5 Conjugation of electrophilic ^111In-benzyl-EDTA derivatives with engineered Fab S95C. Phosphorimage of 10-20% SDS-PAGE gel of samples of complete culture media incubated with ^111In-labeled (A) CABE, (B) CpABE, (C) AABE, and (D) ABE. The radiolabeled light chains migrate near 25 Kd.
To investigate whether either the S95C or the N96C Fab would bind irreversibly to its target, ^111In-labeled chelates bearing electrophilic groups were incubated at physiological pH and temperature with raw tissue culture medium from the cells expressing these recombinant proteins. The culture medium contained 10% fetal calf serum, representative of typical biological media.
The samples were analyzed by denaturing gel electrophoresis (SDS-PAGE). Separation under reducing and denaturing conditions on SDS-PAGE separates the light chain from the heavy chain of each Fab, functionally destroying the antibody-binding pocket. Chelates bound to the Fab but not covalently linked will dissociate because the antibody-binding pocket is no longer folded. […] However, a chelate that not only bound to a Fab but also covalently linked will be attached to the Fab light chain and migrate with it on SDS-PAGE.

Another series deals with G54C mutant of 2D12.5. Description: Permanent binding to G54C, competitive 90Y-AABD attachment, SDS-PAGE. Particulars: 37° C. As for the experimental part:
FIG. 17 a) Scheme describing the permanent binding pair. b) Infinite binding is observed not only for ^90Y-AABD but also for ^111In-AABD, assayed by SDS-PAGE under denaturing conditions where only permanently bound complexes remain attached to the antibody.
FIG. 18 The G54C mutant was preincubated in triplicate with 10 μM AABD complexes of Y^3+, In^3+ or Cu^2+, a negative control N-(1-carbamoyl-2-(4-nitrophenyl)-ethyl)-acrylamide or N-(4-carboxymethylphenyl)-acrylamide, or just buffer, for 5 min, 20 min or 120 min at 37° C., pH 7.5. At the stated times ^90Y-AABD (1 μM) was added to each solution to compete for free G54C. Permanent binding was assayed by measuring band intensities after SDS-PAGE. a) Phosphorimage of gel. The fainter the bands, the greater the permanent binding by the unlabeled ligand. b) Crystal structures of Y-DOTA, In-DOTA-mono(p aminoanilide) (some atoms removed for clarity) and Cu-DOTA.
FIG. 19 a) Metal-AABD (10 μM) complexes were preincubated separately with aliquots of G54C for 5 min, followed by addition of 1 μM ^90Y-AABD, which competes for free G54C, and SDS-PAGE analysis. b) From quantitative phosphorimaging, the highest-affinity AABD complexes form permanent bonds with G54C with higher yields than more 3+weakly binding rare earth-AABD complexes whose ionic radii are slightly smaller (Lu Yb^3+) or larger (Ce^3+, La^3+) than ideal.
We were curious to see if an even weaker binder such as a copper chelate (KD˜10^−4 M for Cu-NBD) would bind irreversibly under ordinary conditions. We tested this by comparing the permanent binding of Y^3+-, In^3+-, and Cu^2+-AABD, using competitive ^90Y-AABD attachment as an indicator (FIG. 18). […] Weaker binding In-AABD blocks >50% of the sites after 5 min preincubation, and even more at later times. Very weakly binding Cu-AABD initially occupies only about 10% of the G54C sites under these conditions, but it has permanently attached to G54C in good yield after 2 hr, blocking>70% of the sites.

The subject of a further series is antibody 2D12.5. Description: Competitive immunoassay (ELISA) of metal chelate binding. On the set-up: species or system mouse. From the text:
FIG. 9 Relative binding of metal-(S)NBD complexes to antibody 2D12.5. A representative set of competitive binding curves obtained from ELISA experiments. Distance between midpoints is related to difference between dissociation constants. Error bars (representing the standard error of the mean) are shown but are generally smaller than the data points.
FIG. 14 Binding of yttrium chelates with different stereochemistry to antibody 2D12.5, showing that the antibody binds a chelate with the side chain in the R configuration approximately one order of magnitude less well than the S configuration. […] Error bars are smaller than the data symbols. Data were generated by competitive ELISA.
A competitive immunoassay to measure the binding constants of various metal-(S)NBD complexes relative to the original Y^3+ complex (FIG. 9) was developed to assess the metal selectivity of antibody 2D12.5. Briefly, 2D12.5 was incubated at 37° C. in the presence of immobilized HSA-21T-Y-(S)BAD and a soluble metal-(S)NBD competitor (Y-(S)BAD was linked to human serum albumin via 2-iminothiolane). The metal-(S)NBD concentration was varied from μM to pM in order to determine the relative binding affinity of 2D12.5 for each metal chelate in comparison to Y-(S)NBD. […] Other antibodies that bind metal chelates do so with a strong preference for one or possibly two metals (Love, R. et al., Biochemistry 32, 10950-10959 (1993), and Khosraviani, M., et al., (2000) Bioconjugate Chem., 11, 267-277). For example, the (S)NBD chelate of group IIIB ion Sc(III) binds to the antibody with a much lower affinity (<1%) than the strongest binding rare earth complexes, perhaps because Sc(III) has a much smaller ionic radius (Meehan, P. R., et al., Coord. Chem. Rev., 181, 121145, and Shannon, R. D. (1976) Acta Crystallogr., Sect. A: Found. Crystallogr., A32, 751-767).
(In an ELISA, binding on a coated surface is turned into a signal by an enzyme label.)

Another series addresses avidin (Gallus gallus, UniProt P02701). To be noted: cited from earlier work.
Another series relates to HLA-DR10. Description: Gel shift assay of permanent attachment of sL1 mutants (western blot). It counts as binding. Particulars: for cross-linking of linker-activated T97C to HLA-DR10: sL1 mutant T97C activated with electrophile, 19 h incubation, western blot. An excerpt: FIG. 25 Gel shift assay of permanent attachment of sL1 to HLA-DR: western blot stained with anti-HLA-DR10β (antibody HL-40). The glycosylated β subunit of HLA-DR10 runs approximately 28-34 kDa, so the cross-linked sL1-HLA-DR10β should run at 57-63 kDa (bands in lanes 5 and 10). Lanes 2-6 are cysteine mutant F96C and lanes 7-11 are cysteine mutant T97C. Lanes 2 and 7 are sL1 mutant only; lanes 3 and 8 are sL1 mutant and HLA-DR10 target; lanes 4 and 9 are sL1 mutant and electrophile (no target); lanes 5 and 10 are the complete experiment: sL1 mutant, electrophile, and target; and lanes 6 and 11 are sL1 mutant with electrophile and recombinant human serum albumin as a negative control. Lnkr: nitrophenyl ester; Trgt: HLA-DR10.
Irreversible Binding Studies of sL1 and HLA-DR10 The general strategy for the development of an irreversibly binding Lym1 sFv (sL1) is outlined in FIG. 24. Lym-1 scFv (sL1) is genetically altered to incorporate a cysteine residue in various positions of one of the six CDRs. This free sulfhydryl is then activated with an alkylbromoacetate consisting of varied R-groups (see FIG. 34) which modify the reactivity of the covalent bond formation. The activated sL1 is then incubated with a crude mixture containing the target protein. The mixture is loaded on a SDS-PAGE gel and then investigated for the appearance of new, high molecular weight bands corresponding to the conjugation of the target protein and the sL1.
The general experimental protocol for the gel shift assays in the figures is as follows. An aliquot of concentrated P. pastoris expression media containing an sL1 mutant (8-10 μL, positive by anti-V5 stain for sL1 and dialyzed into 10 mM HEPES buffer pH 8.0), is incubated for 15 min with a chosen bromoacetate ester (e.g., nitrophenyl bromoacetate) at a concentration of 10 mM, to alkylate the Cys sidechain. […] Reducing SAB is added to each sample, followed by SDS-PAGE and western blotting.
(A gel shift assay detects complexes by their altered migration in electrophoresis.)

The test system of a further series is HLADR. Description: Monovalent binding of Lym-1 single-chain antibody. An excerpt: This is a combination of (1) the behavior characteristic of a weak binder, which should permeate a tumor, and (2) the behavior of an extremely strong binder, which should ultimately lock onto its targets throughout the tumor. This combination of good penetration and permanent binding is a unique and revolutionary aspect of this technology.

Where only a bound is given, the exact number is not on record here.

Chain of avidin (P02701 25-152): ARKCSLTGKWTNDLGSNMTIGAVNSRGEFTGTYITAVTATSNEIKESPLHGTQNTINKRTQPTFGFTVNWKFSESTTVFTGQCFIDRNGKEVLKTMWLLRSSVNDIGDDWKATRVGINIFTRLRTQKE

In the case of `O=C(O)CN(CC(=O)O)CC(Cc1ccc(NC(=O)CBr)cc1)N(CC(=O)O)CC(=O)O` (centres unmarked) [BABE, bromoacetamidobenzyl-EDTA], in series [1], the “whole-body clearance” value is “remain in the animals” and the “apparent half-life, whole-body clearance” value came out at 41 h. As to `O=C(O)CN(CC(=O)O)CC(Cc1ccc(NC(=O)CCl)cc1)N(CC(=O)O)CC(=O)O` (centres unmarked) [CABE, chloroacetamidobenzyl-EDTA], in series [1], the “whole-body clearance” value is “remain in the animals” and the “apparent half-life, whole-body clearance” value came out at 9 h. In the series on Fab S95C, the “covalent attachment to Fab S95C light chain” value is reported as “reacted equally well”. For the molecule `C=CC(=O)Nc1ccc(C[C@H]2CN(CC(=O)O)CCN(CC(=O)O)CCN(CC(=O)O)CCN2CC(=O)O)cc1` [Cu-AABD, (S)-2-(4-acrylamidobenzyl)-DOTA], in the series with G54C mutant of 2D12.5 (10 μM complex, pH 7.5), the “G54C sites initially occupied” value is reported as “about 10%”. Also, in the series on G54C mutant of 2D12.5 (10 μM complex, after 2 hr, pH 7.5), the “G54C sites blocked from 90Y-AABD” value is given as over 70%. For the molecule `O=C(O)CN1CCN(CC(=O)O)CCN(CC(=O)O)[C@@H](Cc2ccc([N+](=O)[O-])cc2)CN(CC(=O)O)CC1` [Gd-(S)NBD, (S)-2-(4-nitrobenzyl)-DOTA], the “relative binding to 2D12.5” value with antibody 2D12.5 (competitive ELISA) is listed as “bind more tightly than the original Y^3+ complex”. Turning to `C=CC(=O)Nc1ccc(C[C@H]2CN(CC(=O)O)CCN(CC(=O)O)CCN(CC(=O)O)CCN2CC(=O)O)cc1` [In-AABD, (S)-2-(4-acrylamidobenzyl)-DOTA], in the series with G54C mutant of 2D12.5 (10 μM complex, preincubation 5 min, pH 7.5), the “G54C sites blocked from 90Y-AABD” value is given as over 50%. Further, the “permanent binding to G54C” value with G54C mutant of 2D12.5 (pH 7.5, SDS-PAGE, listed as 111In-AABD) is given as “binds permanently”. Consider `O=C(O)CN1CCN(CC(=O)O)CCN(CC(=O)O)[C@@H](Cc2ccc([N+](=O)[O-])cc2)CN(CC(=O)O)CC1` [La-(S)NBD, (S)-2-(4-nitrobenzyl)-DOTA], for which the “ΔΔG relative to the Y-(S)NBD complex” value in the series with antibody 2D12.5 (competitive ELISA) was determined as 0.693 kcal/mol. For the molecule `O=C(O)CN1CCN(CC(=O)O)CCN(CC(=O)O)[C@@H](Cc2ccc([N+](=O)[O-])cc2)CN(CC(=O)O)CC1` [Y-(S)NBD, (S)-2-(4-nitrobenzyl)-DOTA], the affinity in the series with antibody 2D12.5 (37° C., competitive immunoassay), expressed as Kd, was 10 nM. Consider `O=C(O)CN1CCN(CC(=O)O)CCN(CC(=O)O)CCN(CC(=O)O)CC1` [Y-DOTA, 1,4,7,10-tetraazacyclododecane-N,N′,N″,N′″-tetraacetic acid], for which the “relative binding to 2D12.5” value is on record as “lower than Y-(S)NBD but higher than Y-(R)NBD” in the series on antibody 2D12.5 (competitive ELISA) and “approximately in the middle” in the series with antibody 2D12.5 (competitive ELISA, listed as Yttrium-DOTA). For `O=C(O)CCCC[C@@H]1SC[C@@H]2NC(=O)N[C@@H]21` [biotin], the KA on avidin is about 4e+09 M⁻¹. Turning to `O=C(CBr)Oc1ccccc1` [phenylbromoacete], in the series on HLA-DR10, the “cross-linking of linker-activated T97C to HLA-DR10” value is given as “mild reactivity”. Take “(S)-1-p chloropropionamidobenzyl-EDTA [CpABE]”: in the series with Fab S95C, the “covalent attachment to Fab S95C light chain” value is recorded as “not”. On to nitrophenylbromoacetate, for which the “cross-linking of linker-activated T97C to HLA-DR10” value with HLA-DR10 is recorded as “strong cross-linking”.

B1: sL1: Lym-1 single-chain antibody, no cysteine mutation (protein)
scFv: RSQVQLKESGPGLVAPSQSLSITCTISGFSLTSYGVHWVRQPPGKGLEWLVVIWSDGSTTYNSALKSRLSISKDNSKSQVFLKMNSLQTDDTAIYYCASHYGSTLAFASWGHGTLVTVSAGGGGSGGGGSGGGGSDIQMTQSPASLSASVGETVTIICRASVNIYSYLAWYQQKQGKSPQLLVYNAKILAEGVPSRFSGSGSGTQFSLKINSLQPEDFGSYYCQHHYGTFTFGSGTKLEIKSRGPFEGKPIPNPLLGLDSTRTGHHHHHH
As for B1, in the series with HLA-DR10 (sL1 construct treated with nitrophenyl ester, 37° C., 4 hr, western blot with HL-40), the “permanent attachment (cross-linking) to HLA-DR10β” value is recorded as “no reactive band appeared”. In addition, the “monovalent affinity” value in the series with HLADR was “too weak to measure confidently, but probably in the micromolar range”.
